Bounds are passed on as bounds.

The assay deals with RKO p21 colon adenocarcinoma cells, uninduced (proliferating). Nature of the assay: Alamar Blue cell viability assay, RKO p21 uninduced (proliferating). The following applies: Homo sapiens; anti-proliferative/cytotoxic activity, 72 hours, without Ponasterone A; read-out: −log EC50 [mol/l] RKO p21 uninduced (proliferating) (converted). The assay is classed as cell-based. As for the experimental part: The anti-proliferative/cytotoxic activity of the compounds described herein can be tested on subclones of RKO human colon adenocarcinoma cells (Schmidt et al., Oncogene 19, 2423-2429; 2000) using the Alamar Blue cell viability assay (described in O'Brien et al. Eur J Biochem 267, 5421-5426, 2000). The compounds are dissolved as 10 mM solutions in DMSO and subsequently diluted in semi-logarithmic steps. DMSO dilutions are further diluted 1:100 into Dulbecco's modified Eagle's medium (DMEM) containing 10% fetal calf serum to a final concentration twice as much as the final concentration in the test. RKO subclones are seeded into 96 well flat bottom plates at a density of 4000 cells per well in a volume of 50 μl per well. 24 hours after seeding the 50 μl each of the compound dilutions in DMEM medium are added into each well of the 96 well plate. Each compound dilution is tested as triplicates. Wells containing untreated control cells are filled with 50 μl DMEM medium containing 1% DMSO. The cells are then incubated with the substances for 72 hours at 37° C. in a humidified atmosphere containing 5% carbon dioxide. To determine the viability of the cells, 10 μl of an Alamar Blue solution (Biosource) are added and the fluorescence is measured at an extinction of 544 nm and an emission of 590 nm. For the calculation of the cell viability the emission value from untreated cells is set as 100% viability and the emission rates of treated cells are set in relation to the values of untreated cells. Viabilities are expressed as % values. The Graphpad Prism program is used for the calculation of EC50 values for anti-proliferative/cytotoxic activity out of the obtained dose-response curves.
To determine the cell cycle specific mode of action, subclones of RKO colon adenocarcinoma cells (RKOp21 or RKOp27 as described by Schmidt et al. in Oncogene 19, 2423-2429; 2000) are seeded into 96 well flat bottom plates at a density of 16000 cells per well in a volume of 50 μl per well in DMEM growth medium with 10% FCS containing 10 μM Ponasterone A. 24 hours after seeding the 50 μl each of the compound dilutions in DMEM medium are added into each well of the 96-well plate. Each compound dilution is tested as triplicates. Wells containing untreated control cells are filled with 50 μl DMEM medium containing 1% DMSO. The cells are then incubated with the substances for 72 hours at 37° C. in a humidified atmosphere containing 5% carbon dioxide. To determine the viability of the cells, 10 μl of an Alamar Blue solution (Biosource) are added and the fluorescence is measured at an extinction of 544 nm and an emission of 590 nm. For the calculation of the cell viability the emission value from untreated cells is set as 100% viability and the emission rates of treated cells are set in relation to the values of untreated cells. Viabilities are expressed as % values. The Graphpad Prism program (GraphPad Software, Inc) is used for the calculation of EC50 values out of the obtained dose-response curves. Viability is compared of proliferating cells grown in the absence of the inducer Ponasterone A, versus viability of cells arrested by the expression of ectopic p27Kip1 induced by Ponasterone A.
Representative values for anti-proliferation/cytotoxicity [measured as −log EC50 (mol/l)] determined in the aforementioned assays follow from the following tables B1 and B2, in which the numbers of the compounds correspond to the numbers of the examples.
(In general: The colour change of resazurin is a common sign of viable cells or microbes.)
As to `COc1ccc2[nH]c3c(c2c1)C[C@@]1(C)C(=O)N(CCCN)C(=O)N1[C@@H]3c1ccccc1` (racemic) [Example 7, (3aSR,10RS)-2-(3-Amino-propyl)-6-methoxy-3a-methyl-10-phenyl-3a,4,9,10-tetrahydro-2,9,10a-triaza-cyclopenta[b]fluorene-1,3-dione], the EC50 is at most 1000 nM.

Take `COc1ccc2[nH]c3c(c2c1)C[C@@]1(C)C(=O)N(CCCN(C)C)C(=O)N1[C@@H]3c1ccccc1` (racemic) [Example 45, (3aSR, 10RS)-2-(3-Dimethylamino-propyl)-6-methoxy-3a-methyl-10-phenyl-3a,4,9,10-tetrahydro-2,9,10a-triaza-cyclopenta[b] fluorene-1,3-dione]: the EC50 is at most 1000 nM.

Consider `COc1ccc2[nH]c3c(c2c1)C[C@@]1(C)C(=O)N(CCCN2CCN(C)CC2)C(=O)N1[C@@H]3c1ccccc1` (racemic) [Example 68, (3aSR, 10RS)-6-Methoxy-3a-methyl-2-[3-(4-methyl-piperazin-1-yl)-propyl]-10-phenyl-3a,4,9,10-tetrahydro-2,9,10a-triaza-cyclopenta [b]fluorene-1,3-dione], for which the EC50 is at most 1000 nM.

For `COc1ccc2[nH]c3c(c2c1)C[C@@]1(C)C(=O)N(CCCN2CC=CCC2)C(=O)N1[C@@H]3c1ccccc1` (racemic) [Example 67, (3aSR, 10RS)-2-[3-(3,6-Dihydro-2H-pyridin-1-yl)-propyl]-6-methoxy-3a-methyl-10-phenyl-3a,4,9,10-tetra-hydro-2,9,10a-triaza-cyclo-penta[b]fluorene-1,3-dione], the EC50 was at most 1000 nM.

As for `CCN(CCO)CCN1C(=O)N2[C@H](c3ccccc3)c3[nH]c4ccc(OC)cc4c3C[C@@]2(C)C1=O` (racemic) [Example 36, (3aSR, 10RS)-2-{2-[Ethyl-(2-hydroxy-ethyl)-amino]-ethyl}-6-methoxy-3a-methyl-10-phenyl-3a,4,9,10-tetra-hydro-2,9,10a-triaza-cyclo-penta[b]fluorene-1,3-dione], the EC50 is at most 1000 nM.

On to `COc1ccc2[nH]c3c(c2c1)C[C@@]1(C)C(=O)N(CCCNC(C)(C)C)C(=O)N1[C@@H]3c1ccccc1` (racemic) [Example 76, (3aSR, 10RS)-2-(3-tert-Butylamino-propyl)-6-methoxy-3a-methyl-10-phenyl-3a,4,9,10-tetrahydro-2,9,10a-triaza-cyclopenta[b] fluorene-1,3-dione], for which the EC50 was at most 1000 nM.

Take `COc1ccc2[nH]c3c(c2c1)C[C@@]1(C)C(=O)N(CCCNCC(F)F)C(=O)N1[C@@H]3c1ccccc1` [Example 50, (3aS, 10R)-2-[3-(2,2-Difluoro-ethylamino)-propyl]-6-methoxy-3a-methyl-10-phenyl-3a,4,9,10-tetrahydro-2,9,10a-triaza-cyclopenta[b] fluorene-1,3-dione]: the EC50 was at most 1000 nM.

On to `COc1ccc2[nH]c3c(c2c1)C[C@@]1(C)C(=O)N(CCCN(C)C(C)C)C(=O)N1[C@@H]3c1ccccc1` (racemic) [Example 59, (3aSR, 10RS)-2-[3-(Isopropyl-methyl-amino)-propyl]-6-methoxy-3a-methyl-10-phenyl-3a,4,9,10-tetra-hydro-2,9,10a-triaza-cyclo-penta[b]fluorene-1,3-dione], for which the EC50 was at most 1000 nM.

As for `COc1ccc2[nH]c3c(c2c1)C[C@@]1(C)C(=O)N(C)C(=O)N1[C@@H]3c1ccccc1` (racemic) [Example 2, (3aSR,10RS)-6-Methoxy-2,3a-dimethyl-10-phenyl-3a,4,9,10-tetrahydro-2,9,10a-triaza-cyclopenta[b]fluorene-1,3-dione], the EC50 is at most 1000 nM.

For the compound `CCN(CC)CCCN1C(=O)N2[C@H](c3ccccc3)c3[nH]c4ccc(OC)cc4c3C[C@@]2(C)C1=O` (racemic) [Example 54, (3aSR, 10RS)-2-(3-Diethyl-amino-propyl)-6-methoxy-3a-methyl-10-phenyl-3a,4,9,10-tetrahydro-2,9,10a-triaza-cyclopenta[b]fluorene-1,3-dione], the EC50 is at most 1000 nM.

In the case of `COc1ccc2[nH]c3c(c2c1)C[C@@]1(C)C(=O)N(CCCNCC2CC2)C(=O)N1[C@@H]3c1ccccc1` (racemic) [Example 74, (3aSR, 10RS)-2-[3-(Cyclo-propylmethyl-amino)-propyl]-6-methoxy-3a-methyl-10-phenyl-3a,4,9,10-tetrahydro-2,9,10a-triaza-cyclopenta[b] fluorene-1,3-dione], the EC50 is at most 1000 nM.

As to `COc1ccc2[nH]c3c(c2c1)C[C@@]1(C)C(=O)N(CCCN(C)CCO)C(=O)N1[C@@H]3c1ccccc1` (racemic) [Example 46, (3aSR, 10RS)-2-{3-[(2-Hydroxy-ethyl)-methyl-amino]-propyl}-6-methoxy-3a-methyl-10-phenyl-3a,4,9,10-tetrahydro-2,9,10a-triaza-cyclopenta[b]fluorene-1,3-dione], the EC50 is at most 1000 nM.

Turning to `COc1ccc2[nH]c3c(c2c1)C[C@@]1(C)C(=O)N(CCCNCCO)C(=O)N1[C@@H]3c1ccccc1` (racemic) [Example 75, (3aSR, 10RS)-2-[3-(2-Hydroxy-ethylamino)-propyl]-6-methoxy-3a-methyl-10-phenyl-3a,4,9,10-tetrahydro-2,9,10a-triaza-cyclopenta[b] fluorene-1,3-dione], the EC50 is at most 1000 nM.

As to `CC[C@@]12Cc3c([nH]c4ccc(OC)cc34)[C@@H](c3ccccc3)N1C(=O)N(CCN(C)C)C2=O` (racemic) [Example 5, (3aSR,10RS)-2-(2-Dimethylamino-ethyl)-3a-ethyl-6-methoxy-10-phenyl-3a,4,9,10-tetrahydro-2,9,10a-triaza-cyclopenta[b]fluorene-1,3-dione], the EC50 is at most 1000 nM.

Regarding `COc1ccc2[nH]c3c(c2c1)C[C@@]1(C)C(=O)N(CCN(C)C(C)C)C(=O)N1[C@@H]3c1ccccc1` (racemic) [Example 39, (3aSR, 10RS)-2-[2-(Isopropyl-methyl-amino)-ethyl]-6-methoxy-3a-methyl-10-phenyl-3a,4,9,10-tetra-hydro-2,9,10a-triaza-cyclo-penta[b]fluorene-1,3-dione], the EC50 is at most 1000 nM.

In the case of `COc1ccc2[nH]c3c(c2c1)C[C@@]1(C)C(=O)N(CCCN2CCCC2)C(=O)N1[C@@H]3c1ccccc1` (racemic) [Example 62, (3aSR, 10RS)-6-Methoxy-3a-methyl-10-phenyl-2-(3-pyrrolidin-1-yl-propyl)-3a,4,9,10-tetrahydro-2,9,10a-triaza-cyclopenta[b]fluorene-1,3-dione], the EC50 was at most 1000 nM.

Regarding `CC[C@@]12Cc3c([nH]c4ccc(OC)cc34)[C@@H](c3ccccc3)N1C(=O)N(CCN)C2=O` (racemic) [Example 10, (3aSR,10RS)-2-(2-Amino-ethyl)-3a-ethyl-6-methoxy-10-phenyl-3a,4,9,10-tetrahydro-2,9,10a-triaza-cyclopenta[b]fluorene-1,3-dione], the EC50 is at most 1000 nM.

On to `COc1ccc2[nH]c3c(c2c1)C[C@@]1(C)C(=O)N(CCN2CCN(C)CC2)C(=O)N1[C@@H]3c1ccccc1` (racemic) [Example 34, (3aSR, 10RS)-6-Methoxy-3a-methyl-2-[2-(4-methyl-piperazin-1-yl)-ethyl]-10-phenyl-3a,4,9,10-tetrahydro-2,9,10a-triaza-cyclopenta[b] fluorene-1,3-dione], for which the EC50 is at most 1000 nM.

On to `COc1ccc2[nH]c3c(c2c1)C[C@@]1(C)C(=O)N(CCN2CCCCCC2)C(=O)N1[C@@H]3c1ccccc1` (racemic) [Example 43, (3aSR, 10RS)-2-(2-Azepan-1-yl-ethyl)-6-methoxy-3a-methyl-10-phenyl-3a,4,9,10-tetrahydro-2,9,10a-triaza-cyclopenta[b]fluorene-1,3-dione], for which the EC50 is at most 1000 nM.

On to `CCN(C)CCCN1C(=O)N2[C@H](c3ccccc3)c3[nH]c4ccc(OC)cc4c3C[C@@]2(C)C1=O` (racemic) [Example 53, (3aSR, 10RS)-2-[3-(Ethyl-methyl-amino)-propyl]-6-methoxy-3a-methyl-10-phenyl-3a,4,9,10-tetrahydro-2,9,10a-triaza-cyclopenta[b] fluorene-1,3-dione], for which the EC50 is at most 1000 nM.

Source of the values: patent publication US20090246169A1, “INDOLOPYRIDINES AS EG5 KINESIN MODULATORS” (priority 2006, published 2009).
